Measured values from patent US11090304B2 (Amgen Inc., priority 2018, dated 2021).

Target: GDP-bound KRAS protein (aa 1-169), containing both G12C and C118A amino acid substitutions (Homo sapiens, UniProt P01116, C118A/G12C)
Assay: Coupled nucleotide exchange assay (SOS-mediated, AlphaScreen)
Format: biochemical
Conditions: 5 min compound pre-incubation

Chain of GDP-bound KRAS protein (aa 1-169), containing both G12C and C118A amino acid substitutions (P01116 1-169 isoform P01116-2 G12C/C118A): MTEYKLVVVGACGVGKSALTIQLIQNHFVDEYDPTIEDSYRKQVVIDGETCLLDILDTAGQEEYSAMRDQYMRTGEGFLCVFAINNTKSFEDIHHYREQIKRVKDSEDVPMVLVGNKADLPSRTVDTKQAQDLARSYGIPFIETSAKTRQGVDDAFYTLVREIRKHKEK

Structure (SMILES): C=CC(=O)N1CCN(c2nc(=O)n(-c3c(C)ccnc3CC)c3nc(-c4c(O)cccc4F)c(F)cc23)[C@@H](C)C1 (single isomer, unassigned) [Example 57-1-2]
- Coupled exchange IC50 (5 min): 2.47 | nda μM

Structure (SMILES): C=CC(=O)N1CCC(c2cc(=O)n(CC(C)(C)C)c3nc(-c4ccccc4F)c(Cl)cc23)CC1 [Example 125, 6-Chloro-1-(2,2-dimethylpropyl)-7-(2-fluorophenyl)-4-(1-(2-propenoyl)-4-piperidinyl)-1,8-naphthyridin-2(1H)-one]
- Coupled exchange IC50 (5 min): 35.4 | nda μM

Structure (SMILES): C=CC(=O)N1CCN(c2nc(=O)n(-c3nccc4c3CCCC4)c3nc(-c4c(O)cccc4F)c(Cl)cc23)[C@@H](C)C1 [Example 55-25, 6-chloro-7-(2-fluoro-6-hydroxyphenyl)-4-((2S)-2-methyl-4-(2-propenoyl)-1-piperazinyl)-1-(5,6,7,8-tetrahydro-1-isoquinolinyl)pyrido[2,3-d]pyrimidin-2(1H)-one]
- Coupled exchange IC50 (5 min): 2.29 | nda μM

Structure (SMILES): C=CC(=O)N1CCN(c2nc(=O)n(-c3ccccc3C(C)C)c3nc(-c4ccccc4F)c(CC)nc23)[C@@H](C)C1 [Example 108, 6-Ethyl-7-(2-fluorophenyl)-4-((2S)-2-methyl-4-(2-propenoyl)-1-piperazinyl)-1-(2-(2-propanyl)phenyl)-2(1H)-pteridinone]
- Coupled exchange IC50 (5 min): 1 | nda μM

Structure (SMILES): C=CC(=O)N1CCN(c2nc(=O)n(-c3c(C(C)C)cccc3N(C)C)c3nc(-c4ccccc4F)c(Cl)cc23)[C@@H](C)C1 (single isomer, unassigned) [Example 54-104-1]
- Coupled exchange IC50 (5 min): 0.743 | nda μM

Structure (SMILES): C=CC(=O)N1CCN(c2cc(=O)n(-c3ccccc3C(C)C)c3nc(-c4ccccc4F)ccc23)[C@@H](C)C1 [Example 127, 7-(2-fluorophenyl)-4-((2S)-2-methyl-4-(2-propenoyl)-1-piperazinyl)-1-(2-(2-propanyl)phenyl)-1,8-naphthyridin-2(1H)-one]
- Coupled exchange IC50 (5 min): 27.2 | nda μM

Structure (SMILES): C=CC(=O)N1CCN(c2nc(=O)n(-c3c(C)cccc3C(C)C)c3nc(-c4nc(N)cc5ccccc45)c(F)cc23)[C@@H](C)C1 (single isomer, unassigned) [Example 71-2-1]
- Coupled exchange IC50 (5 min): 8.7 | nda μM

Structure (SMILES): C=CC(=O)N1CCN(c2cc(=O)n(CC(C)(C)C)c3nc(-c4ccccc4F)c(Cl)cc23)[C@@H](C)C1 [Example 121, 6-chloro-1-(2,2-dimethylpropyl)-7-(2-fluorophenyl)-4-((2S)-2-methyl-4-(2-propenoyl)-1-piperazinyl)-1,8-naphthyridin-2(1H)-one]
- Coupled exchange IC50 (5 min): 14.2 | nda μM

Structure (SMILES): C=CC(=O)N1CCN(c2nc(=O)n(-c3c(CC)cccc3CC)c3nc(N4CCOC5(CCCC5)C4)c(Cl)cc23)[C@@H](C)C1 [Example 66-17, 6-chloro-1-(2,6-diethylphenyl)-4-((2S)-2-methyl-4-(2-propenoyl)-1-piperazinyl)-7-(6-oxa-9-azaspiro[4.5]decan-9-yl)pyrido[2,3-d]pyrimidin-2(1H)-one]
- Coupled exchange IC50 (5 min): 75.5 | nda μM

Structure (SMILES): C=CC(=O)N1CCN(c2nc(=O)n(-c3c(C)cccc3C3CC3)c3nc(-c4ccccc4F)c(F)cc23)[C@@H](C)C1 [Example 58-14, 1-(2-cyclopropyl-6-methylphenyl)-6-fluoro-7-(2-fluorophenyl)-4-((2S)-2-methyl-4-(2-propenoyl)-1-piperazinyl)pyrido[2,3-d]pyrimidin-2(1H)-one]
- Coupled exchange IC50 (5 min): 2.45 | nda μM

Structure (SMILES): C=CC(=O)N1CCN(c2nc(=O)n(-c3ccccc3S(F)(F)(F)(F)F)c3nc(-c4c(O)cccc4F)c(Cl)cc23)[C@@H](C)C1 (single isomer, unassigned) [Example 56-1-1]
- Coupled exchange IC50 (5 min): 5.29 | nda μM

Structure (SMILES): C=CC(=O)N1CCN(c2nc(=O)n(-c3c(C)ncnc3C3CC3)c3nc(-c4ccccc4F)c(Cl)cc23)[C@@H](C)C1 (single isomer, unassigned) [Example 60-30-1]
- Coupled exchange IC50 (5 min): 1.26 | nda μM

Structure (SMILES): C=CC(=O)N1CCN(c2nc(=O)n(-c3c(C)ccnc3C(C)C)c3nc(-c4ccc(F)cc4F)c(F)cc23)[C@@H](C)C1 (single isomer, unassigned) [Example 58-10-2]
- Coupled exchange IC50 (5 min): 6.31 | nda μM

Structure (SMILES): C=CC(=O)N1CCN(c2nc(=O)n(-c3ccccc3C(C)C)c3nc(N(C)CCO)c(Cl)cc23)[C@@H](C)C1 [Example 69-7, 6-chloro-7-((2-hydroxyethyl)(methyl)amino)-4-((2S)-2-methyl-4-(2-propenoyl)-1-piperazinyl)-1-(2-(2-propanyl)phenyl)pyrido[2,3-d]pyrimidin-2(1H)-one]
- Coupled exchange IC50 (5 min): 48.5 | nda μM

Structure (SMILES): C=CC(=O)N1CCN(c2nc(=O)n(-c3ccccc3S(C)(=O)=O)c3nc(-c4c(O)cccc4F)c(Cl)cc23)[C@@H](C)C1 (single isomer, unassigned) [Example 54-56-2]
- Coupled exchange IC50 (5 min): 1.24 | nda μM

Structure (SMILES): C=CC(=O)N1CCN(c2nc(=O)n(-c3ccccc3C(C)C)c3nc(C4=CCCCC4)c(Cl)cc23)[C@@H](C)C1 [Example 54-75, 6-chloro-7-(1-cyclohexen-1-yl)-4-((2S)-2-methyl-4-(2-propenoyl)-1-piperazinyl)-1-(2-(2-propanyl)phenyl)pyrido [2,3-d]pyrimidin-2(1H)-one]
- Coupled exchange IC50 (5 min): 1.08 | nda μM

Structure (SMILES): C=CC(=O)N1CCN(c2nc(=O)n(-c3c(C)cccc3C(C)(C)C)c3nc(-c4c(O)cccc4F)c(F)cc23)[C@@H](C)C1 (single isomer, unassigned) [Example 57-17-2]
- Coupled exchange IC50 (5 min): 3.9 | nda μM

Structure (SMILES): C=CC(=O)N1CCN(c2nc(=O)n(-c3ccccc3C(C)C)c3nc(-c4c(F)cccc4C#N)c(Cl)cc23)[C@@H](C)C1 (single isomer, unassigned) [Example 98-2]
- Coupled exchange IC50 (5 min): 3.38 | nda μM

Structure (SMILES): C=CC(=O)NCCNc1nc(=O)n(-c2c(C)ccnc2C(C)C)c2nc(-c3ccccc3F)c(Cl)cc12 (single isomer, unassigned) [Example 78-12, (M)-N-(2-((6-chloro-7-(2-fluorophenyl)-1-(4-methyl-2-(2-propanyl)-3-pyridinyl)-2-oxo-1,2-dihydropyrido[2,3-d]pyrimidin-4-yl)amino)ethyl)-2-propenamide]
- Coupled exchange IC50 (5 min): 15.4 | nda μM

Structure (SMILES): C=CC(=O)N1CCN(c2nc(=O)n(-c3cn[nH]c3C(C)C)c3nc(-c4ccccc4F)c(Cl)cc23)[C@@H](C)C1 [Example 55-42, 6-chloro-7-(2-fluorophenyl)-4-((2S)-2-methyl-4-(2-propenoyl)-1-piperazinyl)-1-(5-(2-propanyl)-1H-pyrazol-4-yl)pyrido[2,3-d]pyrimidin-2(1H)-one]
- Coupled exchange IC50 (5 min): 0.351 | nda μM

Structure (SMILES): C=CC(=O)N1CCN(c2nc(=O)n(-c3c(CC)cccc3CC)c3nc(N4CCC[C@H](C)C4)c(Cl)cc23)[C@@H](C)C1 [Example 66-28, 6-chloro-1-(2,6-diethylphenyl)-7-((3S)-3-methyl-1-piperindinyl)-4-((2S)-2-methyl-4-(2-propenoyl)-1-piperazinyl)pyrido[2,3-d]pyrimidin-2(1H)-one]
- Coupled exchange IC50 (5 min): 16.6 | nda μM

Structure (SMILES): C=CC(=O)N1CCN(c2nc(=O)n(-c3ccccc3C(C)C)c3nc(-c4ccc[nH]4)c(Cl)cc23)[C@@H](C)C1 [Example 54-46, 6-chloro-4-((2S)-2-methyl-4-(2-propenoyl)-1-piperazinyl)-1-(2-(2-propanyl)phenyl)-7-(1H-pyrrol-2-yl)pyrido[2,3-d]pyrimidin-2(1H)-one]
- Coupled exchange IC50 (5 min): 7.24 | nda μM

Structure (SMILES): C=CC(=O)N1CCN(c2nc(=O)n(-c3c(C)ccnc3C(C)C)c3nc(-c4ccccc4F)c(Cl)cc23)[C@H](C(F)F)C1 (single isomer, unassigned) [Example 78-3-1]
- Coupled exchange IC50 (5 min): 1.19 | nda μM

Structure (SMILES): C=CC(=O)N1CCN(c2nc(=O)n(-c3ccccc3C(C)C)c3nc(-c4ccccc4F)c(C)cc23)[C@@H](C)C1 (single isomer, unassigned) [Example 74-1-1]
- Coupled exchange IC50 (5 min): 2.16 | nda μM

Structure (SMILES): C=CC(=O)N1CCN(c2nc(=O)n(-c3c(C)cccc3C(C)C)c3nc(-c4c(O)cccc4F)c(F)cc23)C[C@@H]1C [Example 63-1, 6-Fluoro-7-(2-fluoro-6-hydroxyphenyl)-1-(2-methyl-6-(2-propanyl)phenyl)-4-((3S)-3-methyl-4-(2-propenoyl)-1-piperazinyl)pyrido[2,3-d]pyrimidin-2(1H)-one]
- Coupled exchange IC50 (5 min): 2.15 | nda μM

Structure (SMILES): C=CC(=O)N1CCN(c2nc(=O)n(-c3c(CC)cccc3CC)c3nc(N4CCOC(C(C)C)C4)c(Cl)cc23)[C@@H](C)C1 (stereo partly drawn) [Example 66-18, 6-chloro-1-(2,6-diethylphenyl)-4-((2S)-2-methyl-4-(2-propenoyl)-1-piperazinyl)-7-(2-(2-propanyl)-4-morpholinyl)pyrido[2,3-d]pyrimidin-2(1H)-one]
- Coupled exchange IC50 (5 min): 76.7 | nda μM

Structure (SMILES): C=CC(=O)N1CCN(c2nc(C#N)c(-c3ccccc3C(C)C)c3nc(-c4ccccc4F)c(Cl)cc23)CC1 [Example 146, 3-Chloro-2-(2-fluorophenyl)-8-(2-(2-propanyl)phenyl)-5-(4-(2-propenoyl)-1-piperazinyl)-1,6-naphthyridine-7-carbonitrile]
- Coupled exchange IC50 (5 min): 38.7 | nda μM

Structure (SMILES): C=CC(=O)N1CCN(c2nc(=O)n(-c3c(CC)cccc3CC)c3nc(N4CC[C@H](F)C4)c(Cl)cc23)[C@@H](C)C1 [Example 66-6, 6-chloro-1-(2,6-diethylphenyl)-7-((3S)-3-fluoro-1-pyrrolidinyl)-4-((2S)-2-methyl-4-(2-propenoyl)-1-piperazinyl)pyrido[2,3-d]pyrimidin-2(1H)-one]
- Coupled exchange IC50 (5 min): 14.9 | nda μM

Structure (SMILES): C=CC(=O)N1CCN(c2nc(=O)n(-c3c(C)ccnc3C(C)C)c3nc(-c4nc(N)ccc4F)c(F)cc23)[C@@H](C)C1 (atropisomer, axis not shown; (M)) [Example 65-2, (M)-7-(6-amino-3-fluoro-2-pyridinyl)-6-fluoro-1-(4-methyl-2-(2-propanyl)-3-pyridinyl)-4-((2S)-2-methyl-4-(2-propenoyl)-1-piperazinyl)pyrido[2,3-d]pyrimidin-2(1H)-one]
- Coupled exchange IC50 (5 min): 1.31 | nda μM
